Measurements from PMC8268581, “Identification of 3,4-Dihydro-2H,6H-pyrimido[1,2-c][1,3]benzothiazin-6-imine Derivatives as Novel Selective Inhibitors of Plasmodium falciparum Dihydroorotate Dehydrogenase” (International Journal of Molecular Sciences, 2021).

Tests used:
P. falciparum 3D7 = experiment: In vitro antimalarial assay (PfLDH/diaphorase); format: cell-based; details: Plasmodium falciparum, growth inhibition, 72 h, 0.0003 to 10 µM, read-out: EC50 Pf3D7
Protocol: This assay was conducted using human red blood cells (RBC) following the guidelines of the ethics committee of Nagasaki University (permission no. 19). Human RBC was obtained from the Japanese Red Cross Society. The P. falciparum 3D7 strain was cultured in 2% hematocrit type O human RBC in RPMI-1640 medium (Gibco) supplemented with 23.8 mM sodium bicarbonate (Wako), 50 mg/L hypoxanthine (Wako), 25 mg/L gentamycin (Sigma), and 0.5% (w/v) AlbuMAX®® II (Gibco) under a 5% O2, 5% CO2, and 90% N2 atmosphere at 37 °C. Parasites were synchronized with 5% (w/v) D-sorbitol (Wako).
Synchronized ring-stage parasites at 0.3% parasitemia and 2% hematocrit were cultured in a 384-well plate at 25 µL with test compounds at a final concentration in the range of 0.0003 to 10 µM with a fixed DMSO concentration of 0.4% (v/v). Parasite growth was monitored by the diaphorase-coupled P. falciparum lactate dehydrogenase (PfLDH) assay, as previously described. After 72 h, 70 µL of the assay solution (150 mM lithium L-lactate (Wako), 0.05 mg/mL 3-acetylpyridine adenine dinucleotide (Oriental Yeast Co., Ltd., Tokyo, Japan), 0.2 mg/mL nitro blue tetrazolium (Wako), 1 unit/mL diaphorase, and 100 mM Tris-HCl pH 8.0) were mixed with the parasite culture and incubated at room temperature for 40 min, and the generated nitro blue formazan was measured at 650 nm using a SpectraMax®® Paradigm®® Multi-Mode Microplate Reader. […] The EC50 was calculated using GraphPad Prism 8.0 software from the mean of quadruplets values.

[1] = Cytotoxicity assay, DLD-1 (Cell Counting Kit-8); format: cell-based; details: DLD-1 human colorectal adenocarcinoma cells
Protocol: (§1) Human dermal fibroblast cells (HDF, Zenbio, Inc., Durham, NC, USA) were cultured in Dulbecco’s Modified Eagle Medium/Nutrient Mixture F-12 medium (DMEM/F12, Gibco), human pancreatic carcinoma cells (PANC-1, DS Pharma Biomedical, Co., Ltd.) were cultured in DMEM (Gibco), and human colorectal adenocarcinoma cells (DLD-1, Taiho Pharmaceutical Company) were cultured in RPMI-1640 medium (FUJIFILM Wako Pure Chemicals). The culture mediums were supplemented with 10% (v/v) heat-inactivated fetal bovine serum (Gibco) and the cells were maintained at 37 °C under 5% CO2.
(§2) HDF, PANC-1, and DLD-1 were seeded at 2.5 × 10^4 cells/well on a 96-well plate and incubated at 37 °C under 5% CO2 overnight. The cells were then washed with PBS and the medium was replaced with 99 µL of fresh media. Then, 1 µL of the compounds or DMSO was added to the respective wells. As controls, wells containing 1% (v/v) DMSO in column 1 and wells containing only the culture medium in column 12 were used as the negative and positive controls, respectively. After 48 h of incubation, the cells were washed with PBS, and 99 µL of fresh media was replaced, followed by the addition of 10 µL of Cell Counting Kit-8 (Dojindo) to each well. After 3 h of incubation, the absorbance was measured at 450 nm using a SpectraMax®® Paradigm®® Multi-Mode microplate Reader. The calculation of cell viability in the test well was based on the absorbance of control wells according to the manufacturer’s protocol. The mean of quadruplet values was used to calculate the CC50 using GraphPad Prism 8.0 software.

[2] = Cytotoxicity assay, PANC-1 (Cell Counting Kit-8); format: cell-based; details: PANC-1 human pancreatic carcinoma cells
Protocol: as §1, §2

[3] = biological target: mammalian mitochondrial complexes II–III (Bos taurus, UniProt P00157+P35720+Q3T189+Q95123); experiment: succinate-cytochrome c reductase (complexes II–III) activity assay; format: biochemical; details: bovine heart mitochondria, range tested 0.0007 to 22.7 µM; read-out: IC50 Mammalian Mitochondrial CII–III
Protocol: Bovine heart mitochondria were prepared as previously described. The NADH-cytochrome c reductase (complexes I–III) and succinate-cytochrome c reductase (complexes II–III) activities were assayed in 384-well plates following an established protocol with small modifications. Complex I–III activity was assayed in a reaction mix containing 50 mM phosphate buffer pH 7.4, 2 mM KCN, 200 µM cytochrome c (cytochrome c from horse heart, Nacalai tesque), and 15 µg/mL mitochondria. Plates containing 1 µL serial dilutions of PfDHODH inhibitors were prepared and mixed with 38 µL of the reaction mix, as described above. The reaction was started by the addition of 5 µL of 2.6 mM NADH, and the assay was performed as described for PfDHODH, but at 550 nm and with 15 min of incubation. Complex II–III activity was assayed similarly to complex I–III activity but with 100 µM cytochrome c and 25 µg/mL mitochondria, and the reaction was started by 10 mM succinate. For both assays, DMSO and 5 µM ascochlorin were used as negative and positive controls, respectively. Assays were performed in triplicate.

[4] = Cytotoxicity assay, HDF (Cell Counting Kit-8); format: cell-based; details: human dermal fibroblast (HDF) cells, normal human dermal fibroblasts
Protocol: as §1, §2

Row | SMILES | EC50 (P. falciparum 3D7) | EC50 at 48 h [1] | EC50 at 48 h [2] | IC50 [3] | EC50 at 48 h [4]
1 | N=C1Sc2cc(-c3ccc(C(=O)c4ccccc4)cc3)ccc2C2=NCCCN12 [Compound 19] | 0.51 ± 0.14 µM | > 10 µM | > 10 µM | > 22.7 µM | > 10 µM
2 | C#CCOCc1ccc(C(=O)c2ccc(-c3ccc4c(c3)SC(=N)N3CCCN=C43)cc2)cc1 [Compound 20] | 0.38 ± 0.08 µM | > 10 µM | > 10 µM | > 22.7 µM | > 10 µM
3 | N=C1Sc2cc(-c3cccc([N+](=O)[O-])c3)ccc2C2=NCCCN12 [Compound 21] | 0.85 ± 0.12 µM | > 10 µM | > 10 µM | > 22.7 µM | > 10 µM
4 | CC(C)Oc1cccc(-c2ccc3c(c2)SC(=N)N2CCCN=C32)c1 [Compound 22] | 0.9 ± 0.44 µM | > 10 µM | > 10 µM | > 22.7 µM | > 10 µM
5 | CCc1cccc(-c2ccc3c(c2)SC(=N)N2CCCN=C32)c1 [Compound 25] | 1.77 ± 0.83 µM | > 10 µM | > 10 µM | > 22.7 µM | > 10 µM
6 | N=C1Sc2cc(-c3ccccc3-c3ccccc3)ccc2C2=NCCCN12 [Compound 27] | 0.39 ± 0.05 µM | > 10 µM | > 10 µM | > 22.7 µM | > 10 µM
7 | c1ccc(-c2ccc3c(c2)SN2CCCN=C32)cc1 [Compound 30] | 9.67 ± 5.09 µM | > 10 µM | > 10 µM | > 22.7 µM | > 10 µM
8 | c1ccc2c(-c3ccc4c(c3)SN3CCCN=C43)cccc2c1 [Compound 31] | 0.33 ± 0.01 µM | > 10 µM | > 10 µM | > 22.7 µM | > 10 µM
9 | c1cc2c(cc1-c1ccc3c(c1)SN1CCCN=C31)OCO2 [Compound 32] | 1.85 ± 0.53 µM | > 10 µM | > 10 µM | > 22.7 µM | > 10 µM
10 | c1ccc(-c2ccc3c(c2)C2=NCCCN2S3)cc1 [Compound 36] | 4.16 ± 0.09 µM | > 10 µM | > 10 µM | > 22.7 µM | 8.38 µM
11 | COC(=O)c1ccc(-c2ccc3c(c2)SN2CCCN=C32)cc1 [Compound 37] | 2.78 ± 0.27 µM | > 10 µM | > 10 µM | > 22.7 µM | 8.43 µM
12 | O=[N+]([O-])c1ccc(-c2ccc3c(c2)SN2CCCN=C32)cc1 [Compound 39] | 1.14 ± 0.06 µM | > 10 µM | > 10 µM | > 22.7 µM | > 10 µM
13 | COC(=O)c1cccc(-c2ccc3c(c2)SN2CCCN=C32)c1 [Compound 40] | 1.72 ± 0.48 µM | > 10 µM | > 10 µM | > 22.7 µM | 9.16 µM
14 | COc1ccccc1-c1ccc2c(c1)SN1CCCN=C21 [Compound 42] | 0.54 ± 0.22 µM | > 10 µM | > 10 µM | > 22.7 µM | 9.77 µM
15 | O=[N+]([O-])c1ccccc1-c1ccc2c(c1)SN1CCCN=C21 [Compound 43] | 1.11 ± 0.08 µM | > 10 µM | > 10 µM | > 22.7 µM | 9.44 µM
